This passage reports exercise distance, exercise speed and Kd results from patent US11806351B2, “Use of coenzyme factor for activation of ATP production in cell” (TERA STONE Co., Ltd, priority 2018, dated 2023).

In assay [1] the test system is intracerebral hemorrhage model rats. Description: intracerebral hemorrhage model rats, amount of exercise. It is filed as in vivo, Wistar rats. To be noted: 100 μg/kg injected into the brain spot one hour after collagenase; hemorrhage day 1 and one week after. The method, then: Intracerebral hemorrhage model rats were prepared by making a small hole into the skull of adult Wistar rats (weight: from 200 to 230 g) under inhalation anesthesia, administering 1.2 μl of a physiological saline to the right brain striatum in Control group and a physiological saline comprising 0.24 U collagenase (type IV) to that of a hemorrhage group.
In order to confirm the brain cell protective action of Specimen 4 for the intracerebral hemorrhage model rats, 100 μg/kg of Specimen 4 was injected into a spot (white lozenge in the drawing) one hour after administration of collagenase, and exercise footprints of the rat were quantitatively measured. (A: Control, B: Hemorrhage group. Pay attention to color change (to black) after hemorrhage).
For the measurement of the amount of exercise, the moving image of the rats was photographed for 5 minutes. The free movement (exercise distance and exercise speed) during the latter 3 minutes of the photographing time was analyzed.

The conditions of assay [2]: cited from earlier work.
Where [3] appears, read: as printed in the method, b201, read-out: Kd.

The structures appear in SMILES notation. Like-named read-outs stand apart in the source and are kept apart here.

Take `Cn1c(=O)nc2n(-c3ccccc3)c3cc(Cl)ccc3cc-2c1=O` [Specimen 4]: in assay [1], the exercise distance result was “ameliorates an ischemic decrease” and the exercise speed entry is listed as “ameliorates an ischemic decrease”.

With `CC(=O)OCOC(=O)CN(CC(=O)OCOC(C)=O)c1ccc(C)cc1OCCOc1cc(C2=c3cc4c5c(c3Oc3c2cc2c6c3CCCN6CCC2)CCC[N+]=5CCC4)ccc1N(CC(=O)OCOC(C)=O)CC(=O)OCOC(C)=O` [Xrhod-1/AM], in assay [2] (setting [3]), the Kd (commonly a measure of binding affinity in units of concentration) was 700 µM.

`CC(=O)OCOC(=O)CN(CC(=O)OCOC(C)=O)c1cc(F)ccc1OCCOc1cc2cc(-c3ncc(C(=O)OCOC(C)=O)o3)oc2cc1N(CC(=O)OCOC(C)=O)CC(=O)OCOC(C)=O` [fura-4F/AM]: the Kd was 770 µM in assay [2] (setting [3]) and 0.77 µM in assay [2] (read-out: Ca2+ chelating ability (Kd)).
